Laboratory results taken from patent US10794932B2, “Biosensor for the detection of a biological target, and method for manufacturing the same” (The Governing Council of The University of Toronto, priority 2016, dated 2020).

How the values were obtained:
TLR1 = molecular target: T1, TLR1 (Mus musculus, UniProt Q9EPQ1); assay: TLR multiplex sensor, EIS film resistance before/after exposure (Example 5), TLR1 sensor; format: binding; details: exposure 20 minutes
T1 sequence (Q9EPQ1 26-795): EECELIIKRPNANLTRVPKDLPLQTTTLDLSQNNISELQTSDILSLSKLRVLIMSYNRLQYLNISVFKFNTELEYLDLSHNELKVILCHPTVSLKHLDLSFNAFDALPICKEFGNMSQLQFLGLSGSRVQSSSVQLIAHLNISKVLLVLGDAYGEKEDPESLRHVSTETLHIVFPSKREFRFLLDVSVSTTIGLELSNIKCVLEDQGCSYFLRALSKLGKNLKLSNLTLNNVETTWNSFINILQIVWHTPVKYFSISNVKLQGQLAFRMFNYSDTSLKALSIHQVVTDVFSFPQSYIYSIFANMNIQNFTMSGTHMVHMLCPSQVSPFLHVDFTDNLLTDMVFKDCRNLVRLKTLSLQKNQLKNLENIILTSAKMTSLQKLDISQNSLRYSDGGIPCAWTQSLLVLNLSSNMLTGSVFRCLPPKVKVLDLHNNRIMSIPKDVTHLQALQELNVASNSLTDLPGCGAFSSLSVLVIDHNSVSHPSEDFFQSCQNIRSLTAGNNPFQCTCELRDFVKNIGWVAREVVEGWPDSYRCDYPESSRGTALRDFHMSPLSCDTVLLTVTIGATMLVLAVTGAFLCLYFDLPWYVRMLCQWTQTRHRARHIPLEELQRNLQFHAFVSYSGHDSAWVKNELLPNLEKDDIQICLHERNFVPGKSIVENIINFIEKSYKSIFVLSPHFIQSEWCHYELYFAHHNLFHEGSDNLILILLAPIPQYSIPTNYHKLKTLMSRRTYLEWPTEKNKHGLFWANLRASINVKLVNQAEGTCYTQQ
Description: For each multiplex TLR sensor, 5 separate gold electrodes were used for binding TLR 1 to 5. The 5 modified electrodes/sensors were exposed to the analyte solution and evaluated one by one using potentiostats and electrochemical cells.
The preparation of each TLR biosensor was evaluated using EIS. It is understood that cyclic voltammetry as well as electrochemical impedance microscopy can also be used for monitoring the modification. […] Ethanolamine was then applied to deactivate unreacted LPA. Due to dissociation of unspecific absorbed TLR, the Rct dropped slightly. Experimental curves were evaluated using a model to obtain the Rct values, which can be seen at FIG. 9. Measurements from at least triplicated samples prepared were used to obtain statistic information.
The TLR1 sensor was exposed to an E. coli K12 whole-cell buffer solution for 20 minutes. The sensor was then removed, washed thoroughly and characterized in the electrochemical cell measuring the Rct again. The difference in Rct before and after exposure is the response triggered by the target. The same protocol was carried out for all remaining TLRs (TLRs 2-5) to obtain one set of pattern for E. coli K12 (FIGS. 10b to 10e). Multiple sets were investigated for statistical relevance. […]

rmTLR4/MD-2 = molecular target: T2, rmTLR4/MD-2 (Mus musculus, UniProt Q9JHF9+Q9QUK6); assay: Selectivity test, TLR4/MD-2 sensor, EIS; format: binding; details: 10 μM
T2 construct: purchased
T2 sequence (Q9QUK6 26-638 limits assumed): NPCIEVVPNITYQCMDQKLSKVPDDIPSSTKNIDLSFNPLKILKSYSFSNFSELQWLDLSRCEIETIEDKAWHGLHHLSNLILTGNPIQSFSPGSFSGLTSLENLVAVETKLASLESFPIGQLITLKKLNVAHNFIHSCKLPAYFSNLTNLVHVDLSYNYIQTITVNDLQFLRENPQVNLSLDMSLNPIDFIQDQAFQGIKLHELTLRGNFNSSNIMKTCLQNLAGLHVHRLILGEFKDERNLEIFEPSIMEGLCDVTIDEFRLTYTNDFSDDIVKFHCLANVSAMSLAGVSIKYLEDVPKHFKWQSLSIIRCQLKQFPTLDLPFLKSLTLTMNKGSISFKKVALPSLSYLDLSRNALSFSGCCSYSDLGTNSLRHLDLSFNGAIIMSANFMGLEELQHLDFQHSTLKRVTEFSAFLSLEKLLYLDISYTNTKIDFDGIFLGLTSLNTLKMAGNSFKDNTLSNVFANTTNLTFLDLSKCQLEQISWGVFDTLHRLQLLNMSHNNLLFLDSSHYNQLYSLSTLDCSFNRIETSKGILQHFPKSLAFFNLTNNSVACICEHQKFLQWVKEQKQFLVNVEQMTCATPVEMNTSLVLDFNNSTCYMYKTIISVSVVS
T2 sequence (Q9JHF9 19-160): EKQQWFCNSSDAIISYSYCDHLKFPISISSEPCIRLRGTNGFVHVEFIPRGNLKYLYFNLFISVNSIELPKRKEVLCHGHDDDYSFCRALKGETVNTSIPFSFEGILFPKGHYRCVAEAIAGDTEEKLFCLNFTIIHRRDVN

Pam3CSK4
delta Rct % (TLR1): 20% | electrochemical response (selectivity test) (rmTLR4/MD-2): slight signal variations
